Assays:
[1] = target: T1, Free fatty acid receptor 1 (Homo sapiens, UniProt O14842); test: Agonist activity at human FFA1 expressed in CHO cells assessed as increase in intracellular Ca2+ flux at 1 uM measured for 90 secs by Fluo4-AM dye based FLIPR assay relative to control; format: functional, cell-based
Mus musculus [2] = test: Anti-diabetic activity in ICR mouse assessed as reduction in blood glucose level at 200 mg/kg, po pretreated for 60 mins followed by glucose challenge measured after 120 mins by OGTT relative to control; format: functional; set-up: scale not given: the % may be the effect or the level left
Mus musculus [3] = test: Anti-diabetic activity in ICR mouse assessed as reduction in blood glucose level at 50 mg/kg, po pretreated for 60 mins followed by glucose challenge measured after 120 mins by OGTT relative to control; format: functional; set-up: scale not given: the % may be the effect or the level left
Mus musculus [4] = test: Anti-diabetic activity in ICR mouse assessed as reduction in blood glucose AUC at 50 mg/kg, po pretreated for 60 mins followed by glucose challenge measured after 120 mins by OGTT relative to control; format: functional; set-up: scale not given: the % may be the effect or the level left
Mus musculus [5] = test: Antidiabetic activity in HFD/STZ-induced type2 diabetic C57BL/6 mouse assessed as decrease in blood glucose excursion administered as single oral dose pretreated for 60 mins followed by glucose challenge after 120 mins by OGTT; format: functional
Mus musculus [6] = test: Antidiabetic activity in HFD/STZ-induced type2 diabetic C57BL/6 mouse assessed as decrease in blood glucose AUC at 100 mg/kg, po administered as single dose 60 mins prior to glucose challenge measured 120 mins post dose by OGTT relative to control; format: functional; set-up: scale not given: the % may be the effect or the level left
Mus musculus [7] = test: Decrease in plasma glucose level in po dosed ICR mouse 60 mins before oral glucose challenge by OGTT method; format: functional, organism-based; conditions: TDE = time-dependent effect
Mus musculus [8] = test: Antidiabetic activity in HFD/STZ-induced type2 diabetic C57BL/6 mouse assessed as decrease in blood glucose AUC at 20 mg/kg, po administered as single dose 60 mins prior to glucose challenge measured 120 mins post dose by OGTT relative to control; format: functional; set-up: scale not given: the % may be the effect or the level left
[9] = target: T1, Free fatty acid receptor 1; test: Agonist activity at FFA1 (unknown origin)

T1 sequence (O14842 whole entry): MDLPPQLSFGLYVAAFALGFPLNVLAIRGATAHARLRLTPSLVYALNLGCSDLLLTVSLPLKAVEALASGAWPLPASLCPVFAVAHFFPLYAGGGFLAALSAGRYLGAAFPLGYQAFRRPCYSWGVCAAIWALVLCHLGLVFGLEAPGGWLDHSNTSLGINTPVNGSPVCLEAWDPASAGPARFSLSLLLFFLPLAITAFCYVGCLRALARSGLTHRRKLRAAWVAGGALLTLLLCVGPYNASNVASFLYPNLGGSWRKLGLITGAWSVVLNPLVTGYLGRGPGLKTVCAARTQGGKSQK

Activity [1] [%] | SMILES | further results
17.9 | O=C(O)CCc1ccc(NC(=O)c2ccc(Cl)cc2)cc1 | 
29.4 | Cc1cccc(C(=O)Nc2ccc(CCC(=O)O)cc2)c1 | Activity (Mus musculus [4]): 20.3%; Activity (Mus musculus [7]): Tde
1.26 | COc1ccccc1C(=O)Nc1ccc(CCC(=O)O)cc1 | 
96.3 | Cc1cc(OCCCS(C)(=O)=O)cc(C)c1-c1cccc(COc2ccc3c(c2)OC[C@H]3CC(=O)O)c1 [FASIGLIFAM] | Activity (Mus musculus [8]): 39.1%
13.8 | O=C(O)CCc1ccc(NC(=O)c2cccs2)cc1 | 
34.3 | O=C(O)CCc1ccc(NC(=O)c2cccc(Oc3ccccc3)c2)cc1 | Activity (Mus musculus [4]): 12.8%; Activity (Mus musculus [7]): Tde
83.8 | O=C(O)CCc1ccc(NCc2cccc(Oc3ccccc3)c2)cc1 | 
25.4 | O=C(O)CCc1ccc(NC(=O)c2cccc(Cl)c2)cc1 | Activity (Mus musculus [7]): Tde
5.67 | Cc1ccccc1C(=O)Nc1ccc(CCC(=O)O)cc1 | 
19.8 | COc1cccc(C(=O)Nc2ccc(CCC(=O)O)cc2)c1 | 
4.29 | O=C(O)CCc1ccc(NC(=O)c2cccnc2)cc1 | 
15.3 | O=C(O)c1ccc(NC(=O)c2ccc(C(=O)c3ccccc3)cc2)cc1 | 

The next lines start with the molecule.

SMILES | Activity [1] [%] | further results
O=C(O)CCc1ccc(NC(=O)c2ccccc2)cc1 | 18.8 | 
Cc1ccc(C(=O)Nc2ccc(CCC(=O)O)cc2)cc1 | 19.4 | 
CN(C)C(=N)NC(=N)N [METFORMIN] |  | Activity (Mus musculus [2]): 27.8%
Cc1cccc(C)c1-c1cccc(C(=O)Nc2ccc(CCC(=O)O)cc2)c1 | 45.8 | Activity (Mus musculus [3]): 23.7%; Activity (Mus musculus [4]): 23.7%; Activity (Mus musculus [5]): Dose-dependent effect; Activity (Mus musculus [6]): 29.1%; Activity (Mus musculus [7]): Tde
O=C(O)CCc1ccc(NC(=O)c2ccccc2Cl)cc1 | 7.73 | 
O=C(O)CCc1ccc(NC(=O)c2ccsc2)cc1 | 15.4 | 
CC(C)(C)c1ccc(C(=O)Nc2ccc(CCC(=O)O)cc2)cc1 | 21.4 | Activity (Mus musculus [7]): Tde
O=C(O)CCc1ccc(NC(=O)c2ccccc2[N+](=O)[O-])cc1 | 0.19 | 
CC#C[C@@H](CC(=O)O)c1ccc(NC(=O)C(=O)Nc2cccc(C(C)(C)C)c2)cc1 |  | EC50 [9]: 4 nM

— ChEMBL document CHEMBL4011595, “Design, synthesis and structure-activity relationship studies of novel free fatty acid receptor 1 agonists bearing amide linker” (Bioorg Med Chem, 2017)
